We go through 1 compound from patent US20080076703A1, “Compositions and methods for the enhanced uptake of therapeutic agents through the bladder epithelium” (Cell Genesys, Inc., priority 2003, published 2008).

The subject of data set [1] is murine bladders. Kind of data set: Oregon Green 488 Paclitaxel uptake in bladder after intravesical instillation (fluorescence microscopy of bladder sections). It counts as in vivo, Balb/c mice. As to conditions: DDM pretreatment 5 min; Oregon Green 488 Paclitaxel 5 μg instilled, retained 15 min. As for the experimental part:
(§1) Female Balb/c mice were used due to the ease of urethral cannulation and intravesical instillation. All animals were housed according to institutional regulations for experimental animals. Balb/c mice (20 gm body weight) were anesthetized with Isoflurane, and a 24-gauge catheter was introduced through the urethra into the bladder. The residual urine was emptied and the bladder was flushed three times with 100 μL of PBS employing a 25-gauge needle inserted into the external end of the catheter. […]
(§2) 70 μL of the solution was intravesically instilled in the bladder and retained for 15 min after which the bladder was washed 3 times with 100 μL each of PBS. […] Triplicate samples were adjusted to 2.00 mL with 0.2 M carbonate buffer (pH=9.34) and spectrophotometric emission was measured at 538 nm following excitation at 485 nm. […]
On examination of the histological sections of the bladder that had been pretreated with PBS followed by the intravesical retention of Paclitaxel, it was observed that there were very small patchy areas of non-specifically bound drug on the luminal surface of the bladder (FIGS. 1A-1C). Most of the bladder surface was devoid of any fluorescence that indicated the absence of any entry of the drug into the bladder tissue. […]

Data set [2] deals with murine bladders. Description: FITC-LC-TAT peptide uptake in bladder after intravesical instillation (fluorescence microscopy of bladder sections). The class given is in vivo, Balb/c mice. As to conditions: 0.1% DDM pretreatment; 5 μg FITC-LC-TAT instilled, retained 15 min. As for the experimental part: as §1, with “catheter. After washing, bladder pretreatment was performed employing the various test reagents as follows: the pretreatment reagent (DDM) was diluted to the desired concentration in PBS, and the bladder was quickly rinsed twice with 100 μL each of the reagent. After the rinsing steps, 100 μL of the pretreatment reagent was introduced via the catheter and retained in the bladder for 5 minutes, followed by an additional quick rinse with the pretreatment reagent. The bladder was then washed three times with 100 μL each of PBS.” for “catheter.”
as §2

The subject of data set [3] is Mouse bladders. Description: Systemic uptake of intravesically instilled sodium fluorescein (serum fluorescence). It counts as in vivo, Balb/c mice. To be noted: 0.1% DDM pretreatment 5 min, 0.1% sodium fluorescein instilled, retained 15 min. As for the experimental part: as §1, §2
Fluorescein has been used to measure alterations in bladder permeability after bladder mucosal injury in mice [Eichel, L. et al., (2001) Urology. […] Following 3× wash of the bladder with PBS, blood was removed from the mice via cardiac puncture and the serum was analyzed for systemic distribution of intravesically instilled sodium fluorescein as described above. […]

Data set [4] has as its system urothelium (GAG layer, tight junctions). Description: Electron Microscopy of the DDM pretreated bladder. It counts as in vivo.
Data set [5] has as its system bladder tissue. To be noted: after DDM pretreatment; cited from earlier work.

Molecules are shown by their SMILES.

For `CCCCCCCCCCCCO[C@@H]1O[C@H](CO)[C@@H](O[C@H]2O[C@H](CO)[C@@H](O)[C@H](O)[C@H]2O)[C@H](O)[C@H]1O` [DDM, n-dodecyl-β-D-maltoside], the “uptake of Paclitaxel into bladder tissue (fluorescence)” value in data set [1] was “significant uptake”. In addition, in data set [2], the “FITC-LC-TAT fluorescent signal in epithelial layer on luminal surface of bladder” value is “distinct signal”. For the same compound, in data set [3], the “increase in the circulating levels of fluorescein as compared to PBS pretreatment” value is 5-10 ×. Besides, in data set [4], the “GAG layer on the urothelium (electron microscopy)” value is recorded as “absent” and the “tight junctions along the surface (electron microscopy)” value is reported as “Disruption of tight junctions”. Also, the “penetration of adenovirus particles (70 nm to 100 nm) into bladder tissue” value in data set [5] is reported as “able to penetrate the bladder tissue”.
